Values quoted from earlier work, collected in publication PMC4648373 (Cancer prevention research (Philadelphia, Pa.), 2015).
Read-outs that look alike come from different tables or passages of the source.

How the values were obtained:
[1] = healthy human subjects
[2] = rodents
AR signaling = conditions: cell culture models, same concentration range

Q: What does the source list for CC(C)=CC(=O)O[C@H]1Cc2cc3ccc(=O)oc3cc2OC1(C)C [D, Decursin]?
A: conversion to DOH [1]: extensive conversion; conversion to DOH [2]: rapidly and extensively converted to DOH; anti-androgen (AR) signaling, cellular growth and survival activities (AR signaling): identical anti-androgen signaling and anti-proliferative activities

Q: For C/C=C(/C)C(=O)O[C@H]1Cc2cc3ccc(=O)oc3cc2OC1(C)C [DA, decursinol angelate], which “conversion to DOH” value [1] is on record?
A: Its value is “extensive conversion”.

Q: What about the “conversion to DOH” value [2] of the same molecule?
A: The value was “rapidly and extensively converted to DOH”.

Q: What about the “anti-androgen (AR) signaling, cellular growth and survival activities” value (AR signaling) of the same molecule?
A: Its value is “identical anti-androgen signaling and anti-proliferative activities”.

Q: Which “anti-androgen (AR) signaling, cellular growth and survival activities” value (AR signaling) does the source give for CC1(C)Oc2cc3oc(=O)ccc3cc2C[C@@H]1O [DOH, decursinol] here?
A: Its value is “much less inhibitory”.
